From ChEMBL document CHEMBL1255557, “Heterobiaryl and heterobiaryl ether derived M5 positive allosteric modulators” (Bioorg Med Chem Lett, 2010)
The source made the active and inactive calls. No cut-off for these calls is given here.

Tests used:
[1] = molecular target: T1, Muscarinic acetylcholine receptor M5 (Homo sapiens, UniProt P08912); test: Positive allosteric modulation of muscarinic M5 receptor expressed in CHO cells assessed as effect on acetylcholine-induced intracellular calcium mobilization after 1 hr by FLIPR assay; type: functional, cell-based
T1 sequence (P08912 whole entry): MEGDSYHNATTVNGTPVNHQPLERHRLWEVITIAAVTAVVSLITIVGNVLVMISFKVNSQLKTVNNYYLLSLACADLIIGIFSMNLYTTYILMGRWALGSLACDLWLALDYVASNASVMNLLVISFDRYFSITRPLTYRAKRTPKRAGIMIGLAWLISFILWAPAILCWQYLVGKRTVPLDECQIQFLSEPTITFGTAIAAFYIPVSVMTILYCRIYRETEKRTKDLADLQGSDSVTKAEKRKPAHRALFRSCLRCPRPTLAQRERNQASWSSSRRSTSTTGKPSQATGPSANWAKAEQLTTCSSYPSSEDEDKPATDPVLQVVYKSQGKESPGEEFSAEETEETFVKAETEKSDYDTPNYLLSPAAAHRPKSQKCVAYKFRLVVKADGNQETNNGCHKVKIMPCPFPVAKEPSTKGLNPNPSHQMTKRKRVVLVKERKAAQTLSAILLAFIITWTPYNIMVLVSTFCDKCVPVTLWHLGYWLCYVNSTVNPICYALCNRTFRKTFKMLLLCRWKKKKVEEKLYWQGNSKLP

[2] = molecular target: T2, Muscarinic acetylcholine receptor M5 (Homo sapiens) (UniProt P08912); test: Positive allosteric modulation of muscarinic M5 receptor expressed in CHO cells assessed as effect on acetylcholine-induced intracellular calcium mobilization after 1 hr by FLIPR assay relative to acetylcholine; type: functional, cell-based
T2 sequence (whole entry): T1 sequence (P08912 whole entry)

[3] = molecular target: T2, Muscarinic acetylcholine receptor M5 (Homo sapiens); test: Positive allosteric modulation of muscarinic M5 receptor expressed in CHO cells assessed as potentiation of acetylcholine-induced intracellular calcium mobilization at 10 uM after 1 hr by FLIPR assay; type: functional, cell-based
[4] = molecular target: T2, Muscarinic acetylcholine receptor M5 (Homo sapiens); test: Positive allosteric modulation of muscarinic M5 receptor expressed in CHO cells assessed as potentiation of acetylcholine-induced intracellular calcium mobilization at 30 uM after 1 hr by FLIPR assay relative to acetylcholine; type: functional, cell-based
[5] = Partition coefficient, log P of the compound; type: physicochemical; settings: octanol/water

Compound	Activity [3]	further results
O=C1C(=O)N(Cc2ccc(-c3ccncc3)cc2)c2ccc(OC(F)(F)F)cc21		EC50 [1]: 2.8 µM; Emax [2]: 60%
O=C1C(=O)N(Cc2ccc(Cl)nc2)c2ccc(OC(F)(F)F)cc21		EC50 [1]: 2.4 µM; Emax [2]: 80%
O=C1C(=O)N(Cc2ccc(-c3ccccc3)cc2)c2ccc(OCc3cccc(Cl)c3)cc21	inactive	
O=C1C(=O)N(Cc2ccc(-c3ccncc3)nc2)c2ccc(OC(F)(F)F)cc21		EC50 [1]: 4.4 µM; Emax [2]: 50%
O=C1C(=O)N(Cc2ccc3c(c2)OCO3)c2ccc(OC(F)(F)F)cc21		EC50 [1]: 3.2 µM; Emax [2]: 90%
COc1ccc(COc2ccc3c(c2)C(=O)C(=O)N3Cc2ccc(-c3ccccc3)cc2)cc1	inactive	
O=C1C(=O)N(Cc2ccc(-c3ccccc3)cc2)c2ccc(OCc3c(F)cccc3F)cc21	inactive	
O=C(O)COc1ccc2c(c1)C(=O)C(=O)N2Cc1ccc(-c2ccccc2)cc1	inactive	
O=C1C(=O)N(Cc2ccc(-c3ccncc3)cn2)c2ccc(OC(F)(F)F)cc21		EC50 [1]: > 30 µM
O=C1C(=O)N(Cc2ccc(-c3ccccc3)cc2)c2ccc(OCC3CCC3)cc21	inactive	
O=C1C(=O)N(Cc2ccc(-c3ccccc3)cc2)c2ccc(OCc3ccc(F)cc3F)cc21	inactive	
O=C1C(=O)N(Cc2cccc(-c3ccccc3)c2)c2ccc(OC(F)(F)F)cc21		EC50 [1]: > 30 µM
O=C1C(=O)N(Cc2ccc(-c3cccnc3)cn2)c2ccc(OC(F)(F)F)cc21		EC50 [1]: > 30 µM
CC(C)COc1ccc2c(c1)C(=O)C(=O)N2Cc1ccc(-c2ccccc2)cc1	inactive	
O=C1C(=O)N(Cc2ccc(-c3ccccc3)cc2)c2ccc(OCc3ccncc3)cc21	inactive	
COc1cccc(Oc2ccc(CN3C(=O)C(=O)c4cc(OC(F)(F)F)ccc43)cc2)n1		EC50 [1]: 2.2 µM; Emax [2]: 51%
O=C1C(=O)N(Cc2ccc(-c3ccccc3)cc2F)c2ccc(OC(F)(F)F)cc21		EC50 [1]: 5.9 µM; Emax [2]: 63%

Compound	Activity [3]	further results
O=C1C(=O)N(Cc2ccc(-c3ccccc3)cc2)c2ccc(OCCc3ccccc3C(F)(F)F)cc21	inactive	
O=C1C(=O)N(Cc2ccc(-c3ccccc3)cc2)c2ccc(OC(F)(F)F)cc21		fold change (FC) [4]: 10; logP [5]: 4.6
COc1ccc(COc2ccc3c(c2)C(=O)C(=O)N3Cc2ccc(-c3ccccc3)cc2)cc1C(F)(F)F	inactive	
O=C1C(=O)N(Cc2ccc(Oc3ccccc3)cc2)c2ccc(OC(F)(F)F)cc21		fold change (FC) [4]: 5
O=C1C(=O)N(Cc2ccc(-c3ccccc3)cc2)c2ccc(OCCc3ccccc3Cl)cc21	inactive	
O=C1C(=O)N(Cc2ccc(Oc3nccs3)cc2)c2ccc(OC(F)(F)F)cc21		EC50 [1]: 2.8 µM; Emax [2]: 58%
O=C1C(=O)N(Cc2ccc(-c3ccccc3)cc2)c2ccc(OCc3cc(F)ccc3F)cc21	inactive	
O=C1C(=O)N(Cc2ccc(-c3ccccc3)cc2)c2ccc(Oc3ncccn3)cc21	inactive	
O=C1C(=O)N(Cc2ccc(-c3ccccc3)cc2)c2ccc(OCCN3CCCC3)cc21	inactive	
O=C1C(=O)N(Cc2cccc(Oc3ccccc3)c2)c2ccc(OC(F)(F)F)cc21		EC50 [1]: > 30 µM
O=C1C(=O)N(Cc2ccc(-c3cccnc3)cc2)c2ccc(OC(F)(F)F)cc21		EC50 [1]: 1.6 µM; Emax [2]: 51%
O=C1C(=O)N(Cc2ccc(Oc3ccccn3)cc2)c2ccc(OC(F)(F)F)cc21		EC50 [1]: 3.2 µM; Emax [2]: 46%
O=C1C(=O)N(Cc2c(F)cc(-c3ccccc3)cc2F)c2ccc(OC(F)(F)F)cc21		EC50 [1]: > 30 µM
O=C1C(=O)N(Cc2ccc(-c3cncnc3)cc2)c2ccc(OC(F)(F)F)cc21		EC50 [1]: 2.1 µM; Emax [2]: 53%
O=C1C(=O)N(Cc2ccc(-c3cccnc3)nc2)c2ccc(OC(F)(F)F)cc21		EC50 [1]: 4 µM; logP [5]: 3; Emax [2]: 53%
CN(C)CCOc1ccc2c(c1)C(=O)C(=O)N2Cc1ccc(-c2ccccc2)cc1	inactive	
O=C1C(=O)N(Cc2ccc(-c3ccccc3)cn2)c2ccc(OC(F)(F)F)cc21		EC50 [1]: 3.1 µM; Emax [2]: 47%

Further lines, with some results ahead:

Activity [3]	Compound	further results
inactive	O=C1C(=O)N(Cc2ccc(-c3ccccc3)cc2)c2ccc(OCc3ccc(OC(F)(F)F)cc3)cc21	
inactive	O=C1C(=O)N(Cc2ccc(-c3ccccc3)cc2)c2ccc(OCc3ccc(C(F)(F)F)cc3)cc21	
inactive	O=C1C(=O)N(Cc2ccc(-c3ccccc3)cc2)c2ccc(OCc3ccccc3Cl)cc21	
inactive	CC1CCCN(COc2ccc3c(c2)C(=O)C(=O)N3Cc2ccc(-c3ccccc3)cc2)C1 (stereo unspecified)	
inactive	O=C1C(=O)N(Cc2ccc(-c3ccccc3)cc2)c2ccc(OCc3cccc(OC(F)(F)F)c3)cc21	
inactive	COc1ccccc1COc1ccc2c(c1)C(=O)C(=O)N2Cc1ccc(-c2ccccc2)cc1	
inactive	O=C1C(=O)N(Cc2ccc(-c3ccccc3)cc2)c2ccc(OCCN3CCOCC3)cc21	
inactive	Cc1ccccc1COc1ccc2c(c1)C(=O)C(=O)N2Cc1ccc(-c2ccccc2)cc1	
inactive	O=C1C(=O)N(Cc2ccc(-c3ccccc3)cc2)c2ccc(OCc3ccccc3C(F)(F)F)cc21	
inactive	O=C1C(=O)N(Cc2ccc(-c3ccccc3)cc2)c2ccc(OCC(F)(F)F)cc21	
inactive	O=C1C(=O)N(Cc2ccc(-c3ccccc3)cc2)c2ccc(OCc3cccc(F)c3)cc21	
inactive	O=C1C(=O)N(Cc2ccc(-c3ccccc3)cc2)c2ccc(OCc3cccnc3)cc21	
inactive	O=C1C(=O)N(Cc2ccc(-c3ccccc3)cc2)c2ccc(OCc3ccccc3F)cc21	
inactive	O=C1C(=O)N(Cc2ccc(-c3ccccc3)cc2)c2ccc(OCc3ccc(F)cc3)cc21	
inactive	CCCCOc1ccc2c(c1)C(=O)C(=O)N2Cc1ccc(-c2ccccc2)cc1	
inactive	CCOc1ccc2c(c1)C(=O)C(=O)N2Cc1ccc(-c2ccccc2)cc1	
inactive	O=C1C(=O)N(Cc2ccc(-c3ccccc3)cc2)c2ccc(OCc3ccc(Cl)cc3)cc21	
inactive	CCCOc1ccc2c(c1)C(=O)C(=O)N2Cc1ccc(-c2ccccc2)cc1	
inactive	O=C1C(=O)N(Cc2ccc(-c3ccccc3)cc2)c2ccc(OCc3ccccc3)cc21	
inactive	O=C1C(=O)N(Cc2ccc(-c3ccccc3)cc2)c2ccc(Oc3ccccn3)cc21	
inactive	O=C1C(=O)N(Cc2ccc(-c3ccccc3)cc2)c2ccc(OCC3CCCCC3)cc21	
inactive	O=C1C(=O)N(Cc2ccc(-c3ccccc3)cc2)c2ccc(OCc3ccccn3)cc21	
inactive	O=C1C(=O)N(Cc2ccc(-c3ccccc3)cc2)c2ccc(OCCC(F)(F)F)cc21	
inactive	COc1ccc2c(c1)C(=O)C(=O)N2Cc1ccc(-c2ccccc2)cc1	
inactive	O=C1C(=O)N(Cc2ccc(-c3ccccc3)cc2)c2ccc(OCc3cccc(C(F)(F)F)c3)cc21	
inactive	O=C1C(=O)N(Cc2ccc(-c3ccccc3)cc2)c2ccc(OCCc3ccccc3F)cc21	
inactive	COc1cccc(COc2ccc3c(c2)C(=O)C(=O)N3Cc2ccc(-c3ccccc3)cc2)c1	
inactive	Cc1ccccc1CCOc1ccc2c(c1)C(=O)C(=O)N2Cc1ccc(-c2ccccc2)cc1	
